Columns and labels:
[1] = test system: long-term HSC (LT-HSC) cells; assay: In vivo expansion of long-term HSC (LT-HSC) cells in bone marrow of wild-type mice (flow cytometry); parameters: species or system mice (C57/BL6); conditions: oral gavage
Method: (§1) The effect of LSD1 inhibitors on HSCPs was investigated in in vivo studies.
(§2) Animals. Healthy animals with an intact immune system were used for all experiments. All animals were drug and test naïve and not involved in previous procedures. Animals were maintained on a 12 hour light-dark cycle with access to water and standard chow ad libitum. CRADL animal care staff conducted routine husbandry procedures and provided daily care and monitoring of all animals housed in CRADL's animal facilities. 8-week old female C57/BL6 (C57BL/6NCrl) mice were purchased from Charles River. All mice were acclimated for at least 48 hours upon arrival. Mice were assigned to treatment groups based on complete blood counts to achieve congruent profiles, body weight was recorded for dose adjustments, and ear tagged for identification. Investigators were not blinded to the identity of mice or samples. No statistical methods were utilized to determine sample size. The experiments described in this study were designed to use the minimum number of animals required.
(§3) Dosing. To assess the effect of different LSD1 inhibitors on hematopoietic stem and progenitor cells (HSPCs), wild-type mice were administered with Compound 3, Compound 2, or vehicle once daily for 7 days via oral gavage. Administered doses were as indicated in FIGS. 1-5 (Compound 3: 15 and 40 mg/kg, Compound 2, 15, 40, 60, and/or 80 mg/kg).
(§4) Drug preparation. As an example of formulation calculations, a correction factor (compound and lot dependent) of 1.5 will be used (e.g., one lot of Compound 2 actual correction factor 1.67; one lot of Compound 3 actual correction factor 1.69). Vehicle is 30% PEG400 (Millipore Sigma cat #8074850058), 5% Cremophor EL (Med Chem Express cat #HY-Y189) in sterile Milli-Q water.
(§5) Compound 3 or Compound 2 (salt) at a dose of 15 mg/kg dose was prepared by weighing out 0.3 mg×1.5 (example correction factor)=0.45 mg per mouse in 200 μl vehicle solution. Each mouse of 20 g received 200 μl of compound in vehicle solution (volume was corrected for body weight of each mouse at time of dosing). Calculations were scaled appropriately for higher doses. Compound was completely dissolved by swirling and gently pipetting in vehicle. Aliquots were stored for daily usage at 4 C in the dark. On the day of dosing, formulations and vehicle were removed from 4 C and allowed to warm to RT for at least 20 minutes before dosing. Formulations were swirled to achieve a homogenous solution prior to administration for 7 days, once daily, via oral gavage.
(§6) Processing of bones and blood for analysis. 24 hours after the last dose was administered, blood was collected via cheek bleed and mice were subsequently sacrificed via CO2 asphyxiation. Bones were separated from the mice, muscle and tissue removed, and bone marrow cells were isolated from mouse femora and tibiae by centrifugation. Red blood cells (RBC) were lysed by adding cold ACK lysis buffer (Thermo Fisher cat #A1049201) and incubating bone marrow cells (or […] of peripheral blood) on ice for 10 minutes. Following RBC lysis, samples were topped up with an appropriate volume of FACS buffer (PBS+2% BSA) and centrifuged at 3000 rpm for 5 minutes. Cell pellet was resuspended in FACS buffer and filtered through a […] filter to remove aggregated cell clumps and debris. Cells in the filtered suspension were counted and ˜2-3×10^6 cells removed for cell staining.
(§7) Flow Cytometry Analysis. For flow staining, @ 2-3×10e6 cells were centrifuged at 400×g, 5 minutes, 4 C in 1.5 ml centrifuge tubes. Supernatant was aspirated and cells were resuspended in 100 μl of staining cock-tail per tube. Tubes were incubated on ice for 30 minutes in the dark. 1 ml of FACS buffer (PBS+2% FBS) was added to each tube and then centrifuged at 400×g, 5 minutes, 4° C. Supernatant was aspirated, and cells were resuspended at 300 μl per tube in 7-AAD solution (5 μl/ml of FACS Buffer). […]

[2] = test system: LSK cells (HSC/progenitor cells: Lineage−, Sca-1+, c-Kit+); assay: In vivo expansion of LSK cells in bone marrow of wild-type mice (flow cytometry); parameters: species or system mice (C57/BL6); conditions: oral gavage
Method: as §1, §2, §3, §4, §5, §6, §7

platelet (PLT) levels = assay: Complete blood count, platelet (PLT) levels, in treated mice; format: in vivo, mice (C57/BL6); conditions: once daily for 7 days, oral gavage
Method: as §2, §3
as §5, with “On the day of dosing, formulations and vehicle were removed from 4 C and allowed to warm to RT for at least 20 minutes before dosing. Formulations were swirled to achieve a homogenous solution prior to administration for 7 days, once daily, via oral gavage.” left out
Processing of bones and blood for analysis. […] Cells in the filtered suspension were counted and ˜2-3×10^6 cells removed for cell staining.
Complete blood counts. Complete blood counts from the peripheral blood sample collected at end of study were measured at IDEXX BioAnalytics.

With `COc1ccc(-n2nc(NC[C@H]3CCC[C@H](N)C3)cc2-c2ccc(C#N)c(F)c2)cc1` [Compound 2] the “in vivo expansion of LT-HSC cells, fold increase” value ([1]; 40 mg/kg once daily for 7 days) was 1.5 fold, the “number of LT-HSC cells, treated group” value ([1]; 40 mg/kg once daily for 7 days) was 250 and the “in vivo expansion of LT-HSC cells, fold increase” value ([1]; 80 mg/kg once daily for 7 days) was 1.6 fold. For the same compound, the “number of LT-HSC cells, treated group” value ([1]; 80 mg/kg once daily for 7 days) was 157, the “in vivo expansion of LSK cells, fold increase” value ([2]; 40 mg/kg once daily for 7 days) was 1.7 fold and the “number of LSK cells, treated group” value ([2]; 40 mg/kg once daily for 7 days) was 1714. The “in vivo expansion of LSK cells, fold increase” value ([2]; 80 mg/kg once daily for 7 days) was 2.3 fold, the “number of LSK cells, treated group” value ([2]; 80 mg/kg once daily for 7 days) was 2215 and the “effect on complete blood count as evidenced by platelet (PLT) levels” value (“effect on complete blood count” for short) (platelet (PLT) levels; three higher concentrations) was “not significantly affected at any dose”. The “effect on complete blood count” value (platelet (PLT) levels; two concentrations) was “not significantly affected at either dose”.

In the case of `CN1CCN(C(=O)[C@H](CCCN[C@@H]2C[C@H]2c2ccc(F)cc2)NC(=O)c2ccc(-n3ccnn3)cc2)CC1` [IMG-7289, bomedemstat], the “in vivo expansion of LT-HSC cells, fold increase” value ([1]; 15 mg/kg once daily for 7 days) is reported as 2 fold, the “number of LT-HSC cells, treated group” value ([1]; 15 mg/kg once daily for 7 days) is reported as 252 and the “in vivo expansion of LT-HSC cells, fold increase” value ([1]; 40 mg/kg once daily for 7 days) is reported as 7.5 fold. For the same compound, the “number of LT-HSC cells, treated group” value ([1]; 40 mg/kg once daily for 7 days) was 921, the “in vivo expansion of LSK cells, fold increase” value ([2]; 15 mg/kg once daily for 7 days) was 2 fold and the “number of LSK cells, treated group” value ([2]; 15 mg/kg once daily for 7 days) was 2545. For the same compound, the “in vivo expansion of LSK cells, fold increase” value ([2]; 40 mg/kg once daily for 7 days) was 6 fold and the “effect on complete blood count” value (platelet (PLT) levels; two concentrations) was “reduced in a dose-dependent manner”.

From US20260083729A1, “METHODS FOR TREATMENT OF BONE MARROW FAILURE AND RELATED CONDITIONS” (Imago Biosciences, Inc., priority 2022, published 2026)
